In general, inhibition refers to the drop in the measured response relative to a control, in per cent.

Holding throughout (type): cell-based
Assay [1] has as its system Chikungunya virus (CHIKV). As to the kind of experiment: microbe, parasite or virus in culture. The following applies: for inhibition at 1 µM: Chikungunya virus, Vero, 48 h, read-out: Percent viral inhibition CHKV.
Another assay deals with dengue virus (DENV). The assay is described as follows: microbe, parasite or virus in culture. The following applies: for inhibition at 1 µM: Dengue virus, Vero, 120 h, read-out: Percent viral inhibition DENY.
The test system of another assay is Marburg virus (MARV). The assay is described as follows: organism not typed. The note with it: for inhibition at 1 µM: Vero, 72 h, read-out: Percent viral inhibition MARV.

Take `CN1CCN(c2ncc(Oc3cc(CN4CCC(CC(=O)O)CC4)cc(-c4cc(Cl)cc(Cl)c4)n3)cn2)CC1` [Example 207, 2-(1-((2-(3,5-dichlorophenyl)-6-((2-(4-methylpiperazin-1-yl)pyrimidin-5-yl)oxy)pyridin-4-yl)methyl)piperidin-4-yl)acetic acid]: the inhibition at 1 µM worked out at 26.3% in assay [1], 47.9% in the assay on dengue virus (DENV) and 42.2% in the assay on Marburg virus (MARV).

In the case of `O=C(O)CC1CCN(Cc2cc(Oc3cnc(N4CCN(CC(O)CO)CC4)nc3)nc(-c3cc(Cl)cc(Cl)c3)c2)CC1` (stereo not drawn) [Example 177, 2-(1-((2-(3,5-dichlorophenyl)-6-((2-(4-(2,3-dihydroxypropyl)piperazin-1-yl)pyrimidin-5-yl)oxy)pyridin-4-yl)methyl)piperidin-4-yl)acetic acid], the figures for the inhibition at 1 µM (in assay [1]; in the assay on dengue virus (DENV); in the assay on Marburg virus (MARV)) were 14.3%, 24% and 37%, respectively.

Turning to `CN1CCN(c2ncc(Oc3cc(CN4CC5CC(CC(=O)O)CC5C4)cc(-c4cc(Cl)cc(Cl)c4)n3)cn2)CC1` (stereo not drawn) [Example 129, 2-(2-((2-(3,5-dichlorophenyl)-6-((2-(4-methylpiperazin-1-yl)pyrimidin-5-yl)oxy)pyridin-4-yl)methyl)octahydrocyclopenta[c]pyrrol-5-yl)acetic acid], the inhibition at 1 µM in assay [1] stood at 23.6%; in the assay on dengue virus (DENV) it was 38.5%; in the assay on Marburg virus (MARV), 29.8%.

Consider `CN1CCN(c2ncc(Oc3cc(CN4CCC(CCO)CC4)cc(-c4cc(Cl)cc(Cl)c4)n3)cn2)CC1` [Example 52, 2-(1-((2-(3,5-dichlorophenyl)-6-((2-(4-methylpiperazin-1-yl)pyrimidin-5-yl)oxy)pyridin-4-yl)methyl)piperidin-4-yl)ethanol], for which the values for the inhibition at 1 µM (in assay [1]; in the assay with dengue virus (DENV); with Marburg virus (MARV)) were 26.3%, 45.6% and 29.9%, respectively.

As for `CNCc1cc(Oc2cnc(N3CCN(CCCS(C)(=O)=O)CC3)nc2)nc(-c2cc(Cl)cc(Cl)c2)c1` [Example 37, 1-(2-(3,5-dichlorophenyl)-6-((2-(4-(3-(methylsulfonyl)propyl)piperazin-1-yl)pyrimidin-5-yl)oxy)pyridin-4-yl)-N-methylmethanamine], the results for the inhibition at 1 µM (in assay [1]; in the assay on dengue virus (DENV); in the assay with Marburg virus (MARV)) were 32.9%, 100% and 56.6%, respectively.

In the case of `CN1CCN(c2ncc(Oc3cc(CN4CCC(NC(N)=O)CC4)cc(-c4cc(Cl)cc(Cl)c4)n3)cn2)CC1` [Example 329, 1-(1-((2-(3,5-dichlorophenyl)-6-((2-(4-methylpiperazin-1-yl)pyrimidin-5-yl)oxy)pyridin-4-yl)methyl)piperidin-4-yl)urea], the inhibition at 1 µM in assay [1] was found to be 22.2%; with dengue virus (DENV), 19.2%; with Marburg virus (MARV), 42.3%.

For `CNC(=O)NCC1CCN(Cc2cc(Oc3cnc(N4CCN(CCC(C)[S+](C)[O-])CC4)nc3)nc(-c3cc(Cl)cc(Cl)c3)c2)CC1` (stereo not drawn) [Example 17, 1-((1-((2-(3,5-chlorophenyl)-6-((2-(4-(3-(methylsulfinyl)butyl)piperazin-1-yl)pyrimidin-5-yl)oxy)pyridin-4-yl)methyl)piperidin-4-yl)methyl)-3-methylurea], the results for the inhibition at 1 µM (in assay [1]; in the assay with dengue virus (DENV); in the assay on Marburg virus (MARV)) were 7.16%, 57.4% and 52.9%, respectively.

With `CN1CCCN(c2ncc(Oc3cc(CN4CCC(CC(=O)O)CC4)cc(-c4cc(F)cc(Cl)c4)n3)cn2)CC1` [Example 374, 2-(1-((2-(3-chloro-5-fluorophenyl)-6-((2-(4-methyl-1,4-diazepan-1-yl)pyrimidin-5-yl)oxy)pyridin-4-yl)methyl)piperidin-4-yl)acetic acid], the results for the inhibition at 1 µM (in assay [1]; with dengue virus (DENV); in the assay on Marburg virus (MARV)) were 17.6%, 38.5% and 48.6%, respectively.

Consider `CC(=O)NCC1CCN(Cc2cc(Oc3cnc(N4CCN(CCS(C)(=O)=O)CC4)nc3)cc(-c3cc(Cl)cc(Cl)c3)c2)CC1` [Example 167, N-((1-((3′,5′-dichloro-5-((2-(4-(2-(methylsulfonyl)ethyl)piperazin-1-yl)pyrimidin-5-yl)oxy)-[1,1′-biphenyl]-3-yl)methyl)piperidin-4-yl)methyl)acetamide], for which the inhibition at 1 µM in assay [1] is 0%; in the assay on dengue virus (DENV), 41.3%; in the assay on Marburg virus (MARV), 0%.

On to `CC(=O)NCC1CCN(Cc2cc(Oc3ccc(N4CCN(C)CC4)nn3)nc(-c3cc(Cl)cc(Cl)c3)c2)CC1` [Example 157, N-((1-((2-(3,5-dichlorophenyl)-6-((6-(4-methylpiperazin-1-yl)pyridazin-3-yl)oxy)pyridin-4-yl)methyl)piperidin-4-yl)methyl)acetamide], for which the inhibition at 1 µM in assay [1] was 25.3%; in the assay on dengue virus (DENV) it was 53.4%; with Marburg virus (MARV), 77.5%.

Regarding `COC(=O)NCC1CCN(Cc2cc(Oc3cnc(N4CCN(C)CC4)nc3)nc(-c3cc(Cl)cc(Cl)c3)c2)CC1` [Example 63, methyl((1-((2-(3,5-dichlorophenyl)-6-((2-(4-methylpiperazin-1-yl)pyrimidin-5-yl)oxy)pyridin-4-yl)methyl)piperidin-4-yl)methyl)carbamate], the inhibition at 1 µM in assay [1] came out at 0%; in the assay on dengue virus (DENV), 2.35%; in the assay on Marburg virus (MARV) it was 14.7%.

Consider `CC(=O)NCC1CCN(Cc2cc(Oc3ccc(N4CCN(C(=O)CCC(=O)O)CC4)nc3)nc(-c3cc(Cl)cc(Cl)c3)c2)CC1` [Example 33, 4-(4-(5-((4-((4-(acetamidomethyl)piperidin-1-yl)methyl)-6-(3,5-dichlorophenyl)pyridin-2-yl)oxy)pyridin-2-yl)piperazin-1-yl)-4-oxobutanoic acid], for which the inhibition at 1 µM in assay [1] was determined as 36.5%; with dengue virus (DENV) it was 49.4%; with Marburg virus (MARV) it was 67.3%.

Turning to `CC(=O)NCC1CCN(Cc2cc(Oc3ccc(N4CCN(CCS(N)(=O)=O)CC4)nc3)nc(-c3cc(Cl)cc(Cl)c3)c2)CC1` [Example 289, N-((1-((2-(3,5-dichlorophenyl)-6-((6-(4-(2-sulfamoylethyl)piperazin-1-yl)pyridin-3-yl)oxy)pyridin-4-yl)methyl)piperidin-4-yl)methyl)acetamide], in assay [1] (1 µM), the “Percent viral inhibition CHKV” value is given as 28.95%. In the assay with dengue virus (DENV) (1 µM), the “Percent viral inhibition DENY” value is 43.48%. In the assay on Marburg virus (MARV) (1 µM), the “Percent viral inhibition MARV” value was determined as 40.64%.

Regarding `CC(=O)NCC1CCN(Cc2cc(Oc3cnc(N4CCN(CCC(=O)O)CC4)cn3)nc(-c3cc(Cl)cc(Cl)c3)c2)CC1` [Example 111], the inhibition at 1 µM is 22.3% in assay [1], 48.8% in the assay with dengue virus (DENV) and 29.8% with Marburg virus (MARV).

Take `COC(=O)NC(=O)NCC1CCN(Cc2cc(Oc3cnc(N4CCN(C)CC4)nc3)nc(-c3cc(Cl)cc(Cl)c3)c2)CC1` [Example 325, N-1-((1-((2-(3,5-dichlorophenyl)-6-((2-(4-methylpiperazin-1-yl)pyrimidin-5-yl)oxy)pyridin-4-yl)methyl)piperidin-4-yl)methyl)-N′-methoxyl-carbonylurea]: the inhibition at 1 µM in assay [1] amounted to 0%; in the assay with dengue virus (DENV), 5.08%; in the assay on Marburg virus (MARV) it was 0%.

For `CC(=O)NCC1(O)CCN(Cc2cc(Oc3ccc(N4CCNCC4)nc3)nc(-c3cc(Cl)cc(Cl)c3)c2)CC1` [Example 2, N-((1-((2-(3,5-dichlorophenyl)-6-((6-(piperazin-1-yl)pyridin-3-yl)oxy)pyridin-4-yl)methyl)-4-hydroxy-piperidin-4-yl)methyl)acetamide], the inhibition at 1 µM turned out to be 33.8% in assay [1], 34.3% in the assay with dengue virus (DENV) and 60.4% in the assay on Marburg virus (MARV).

For `CN1CCN(c2ncc(Oc3cc(CN4CCC(NC(=O)NS(C)(=O)=O)CC4)cc(-c4cc(Cl)cc(Cl)c4)n3)cn2)CC1` [Example 328, N-((1-((2-(3,5-dichlorophenyl)-6-((2-(4-methylpiperazin-1-yl)pyrimidin-5-yl)oxy)pyridin-4-yl)methyl)piperidin-4-yl)carbamoyl)methanesulfonamide], the inhibition at 1 µM in assay [1] came to 37.5%; in the assay on dengue virus (DENV) it was 55.8%; in the assay on Marburg virus (MARV), 49.5%.

Regarding `NC1(CCO)CCN(c2ncc(Oc3cc(CN4CCC(CC(=O)O)CC4)cc(-c4cc(Cl)cc(Cl)c4)n3)cn2)CC1` [Example 124, 2-(1-((2-((2-(4-amino-4-(2-hydroxyethyl)piperidin-1-yl)pyrimidin-5-yl)oxy)-6-(3,5-dichlorophenyl)pyridin-4-yl)methyl)piperidin-4-yl) acetic acid], the figures for the inhibition at 1 µM (in assay [1]; in the assay with dengue virus (DENV); in the assay with Marburg virus (MARV)) were 21.2%, 1.28% and 63.8%, respectively.

Turning to `COC(=O)NCC1(F)CCN(Cc2cc(Oc3cnc(N4CCN(CCC(=O)O)CC4)nc3)nc(-c3cc(Cl)cc(Cl)c3)c2)CC1` [Example 51, 3-(4-(5-((6-(3,5-dichlorophenyl)-4-((4-fluoro-4-(((methoxycarbonyl)amino)methyl)piperidin-1-yl)methyl)pyridin-2-yl)oxy)pyrimidin-2-yl)piperazin-1-yl)propanoic acid], the inhibition at 1 µM was 21.1% in assay [1], 56.7% with dengue virus (DENV) and 43.6% in the assay with Marburg virus (MARV).

Turning to `CN1C[C@@H]2C[C@H]1CN2c1ccc(Oc2cc(CN3CCC(CC(=O)O)CC3)cc(-c3cc(Cl)cc(Cl)c3)n2)cn1` [Example 203, 2-(1-((2-(3,5-dichlorophenyl)-6-((6-((1S,4S)-5-methyl-2,5-diazabicyclo[2.2.1]heptan-2-yl)pyridin-3-yl)oxy)pyridin-4-yl)methyl)piperidin-4-yl)acetic acid], the figures for the inhibition at 1 µM (in assay [1]; in the assay on dengue virus (DENV); in the assay with Marburg virus (MARV)) were 23.6%, 7.17% and 55.2%, respectively.

For the compound `CN1CCN(c2ncc(Oc3cc(CN4CCC(CCS(N)(=O)=O)CC4)cc(-c4cc(Cl)cc(Cl)c4)n3)cn2)CC1` [Example 87, 2-(1-((2-(3,5-dichlorophenyl)-6-((2-(4-methylpiperazin-1-yl)pyrimidin-5-yl)oxy)pyridin-4-yl)methyl)piperidin-4-yl)ethanesulfonamide], the inhibition at 1 µM in assay [1] came out at 16.9%; in the assay on dengue virus (DENV), 30.2%; in the assay with Marburg virus (MARV), 30.3%.

The values are drawn from patent US20230011571A1, “SMALL MOLECULE FURIN INHIBITORS FOR TREATING INFECTIOUS DISEASES” (BP Asset V, Inc., priority 2019, published 2023).
